Assay results as given in ChEMBL document CHEMBL1151066, “Inhibitors of MMP-1: an examination of P1 C gem-disubstitution in the N-carboxyalkylamine and glutaramide carboxylate series” (Bioorg Med Chem Lett, 1996).
pIC50: −log10 of the molar value.

Each molecule was assayed against T1, Interstitial collagenase (Homo sapiens, UniProt P03956) (assay: Inhibitory activity against Matrix Metallo Proteinase-1 (MMP-1)).
T1 sequence (P03956 whole entry): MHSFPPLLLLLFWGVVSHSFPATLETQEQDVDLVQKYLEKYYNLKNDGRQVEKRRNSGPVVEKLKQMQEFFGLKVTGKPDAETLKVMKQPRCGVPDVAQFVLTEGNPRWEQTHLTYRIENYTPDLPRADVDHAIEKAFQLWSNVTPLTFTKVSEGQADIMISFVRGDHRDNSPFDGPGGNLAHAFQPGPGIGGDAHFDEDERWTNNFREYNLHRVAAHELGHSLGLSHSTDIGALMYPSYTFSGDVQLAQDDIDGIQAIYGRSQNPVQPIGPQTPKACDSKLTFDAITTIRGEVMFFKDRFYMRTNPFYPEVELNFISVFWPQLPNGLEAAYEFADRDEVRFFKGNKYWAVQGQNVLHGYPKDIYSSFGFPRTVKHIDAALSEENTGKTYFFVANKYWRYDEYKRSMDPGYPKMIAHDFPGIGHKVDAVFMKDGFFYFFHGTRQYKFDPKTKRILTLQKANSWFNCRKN

| SMILES | pIC50 |
| --- | --- |
| CNC(=O)[C@H](Cc1ccccc1)NC(=O)[C@H](CC(C)C)N[C@H](CCN1C(=O)c2cc3ccccc3cc2C1=O)C(=O)O | 7.47 |
| CNC(=O)[C@H](Cc1ccc(OC)cc1)NC(=O)[C@H](CC(C)C)C[C@@H](CCN1C(=O)c2cc3ccccc3cc2C1=O)C(=O)O | 7.64 |
| CNC(=O)[C@H](Cc1ccc(OC)cc1)NC(=O)C1(CC(CCN2C(=O)c3ccc(OC)cc3C2=O)C(=O)O)CCCCC1 (mixture of isomers) | 6.24 |
| CCC(CC1(C(=O)N[C@@H](Cc2ccc(OC)cc2)C(=O)NC)CCCCC1)C(=O)O (mixture of isomers) | < 4.52 |
| CNC(=O)[C@H](Cc1ccc(OC)cc1)NC(=O)C1(CC(CCN2C(=O)c3cc4ccccc4cc3C2=O)C(=O)O)CCCC1 (stereo in doubt; form 1) | 6.03 |
| CNC(=O)[C@H](Cc1ccc(OC)cc1)NC(=O)C1(CC(CCN2C(=O)c3cc4ccccc4cc3C2=O)C(=O)O)CCCCC1 (stereo in doubt; form 1) | 7.42 |
| CNC(=O)[C@H](Cc1ccc(OC)cc1)NC(=O)C1(NC(CCN2C(=O)c3cc4ccccc4cc3C2=O)C(=O)O)CCCCC1 (stereo in doubt; form 2) | 7.05 |
| CNC(=O)[C@H](Cc1ccc(OC)cc1)NC(=O)C1(CC(CCN2C(=O)c3cc4ccccc4cc3C2=O)C(=O)O)CCCCC1 (stereo in doubt; form 2) | 6.85 |

More lines, in order of rising pIC50, values ahead:

| pIC50 | SMILES |
| --- | --- |
| 4.92 | O=C(O)C(CCN1C(=O)c2cc3ccccc3cc2C1=O)CC1(C(=O)NCCN2CCOCC2)CCCCC1 (racemic) |
| 5.49 | CNC(=O)[C@H](Cc1ccc(OC)cc1)NC(=O)C1(CC(CCN2C(=O)c3ccccc3C2=O)C(=O)O)CCCCC1 (mixture of isomers) |
| 5.52 | O=C(O)C(CCN1C(=O)c2cc3ccccc3cc2C1=O)CC1(C(=O)NCc2ccccc2)CCCCC1 (racemic) |
| 6.01 | CNC(=O)[C@H](Cc1ccc(OC)cc1)NC(=O)C1(NC(CCN2C(=O)c3cc4ccccc4cc3C2=O)C(=O)O)CCCCC1 (stereo in doubt; form 1) |
| 6.59 | CNC(=O)[C@H](Cc1ccc(OC)cc1)NC(=O)C1(CC(CCN2C(=O)c3cc4ccccc4cc3C2=O)C(=O)O)CCCC1 (stereo in doubt; form 2) |
| 6.85 | CCCOc1ccc2c(c1)C(=O)N(CCC(CC1(C(=O)N[C@@H](Cc3ccc(OC)cc3)C(=O)NC)CCCCC1)C(=O)O)C2=O (mixture of isomers) |
| 7.64 | CNC(=O)[C@H](Cc1ccc(OC)cc1)NC(=O)[C@H](CC(C)C)N[C@H](CCN1C(=O)c2cc3ccccc3cc2C1=O)C(=O)O |
